This passage reports GI50 and TGI results from PubChem BioAssay (NCI).

Test systems include U251 CNS; NCI-H226 lung; NCI-H23 lung; CCRF-CEM leukemia; UACC-62 melanoma; SF-268 CNS; SK-MEL-2 melanoma; OVCAR-8 ovarian; SR leukemia.
Common to all, as to experiment: growth of human tumour cells (NCI), 48 h

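Briefly, cells in 96-well plates were exposed to five compound concentrations for 48 h, and endpoints were estimated by linear interpolation. GI50: concentration for 50% inhibition of growth. The concentration for full growth arrest is given as TGI.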

For the compound `CCOC(=O)N1CCN(CCCCCOc2ccccc2C2CCCCC2)CC1`, the GI50 in the assay with U251 CNS is 5.05 µM; in the assay on NCI-H226 lung it was 3.96 µM; in the assay on NCI-H23 lung, 3.12 µM; in the assay on CCRF-CEM leukemia, 4.42 µM; in the assay on UACC-62 melanoma, 4.86 µM; with SF-268 CNS, 15.3 µM. Besides, the TGI in the assay on U251 CNS stood at 19 µM; in the assay with NCI-H226 lung it was 18.4 µM; with NCI-H23 lung it was 5.93 µM; in the assay with CCRF-CEM leukemia it was 18.4 µM; in the assay with UACC-62 melanoma, 19.7 µM; in the assay on SF-268 CNS, 35.1 µM.

In the case of `Cc1cc(C)n(C2=NS(=O)(=O)c3ccccc3N2C)n1`, the TGI in the assay on U251 CNS, with NCI-H226 lung, with SK-MEL-2 melanoma, with OVCAR-8 ovarian, in the assay on NCI-H23 lung and with CCRF-CEM leukemia was more than 100 µM in each case. Also, the TGI in the assay on UACC-62 melanoma and in the assay with SF-268 CNS was more than 100 µM each time.

For the compound `Cc1nc(-c2cccnc2)sc1C(=O)/C=C/c1cccc([N+](=O)[O-])c1`, the TGI in the assay with U251 CNS, with NCI-H226 lung, with SK-MEL-2 melanoma, in the assay with OVCAR-8 ovarian, with NCI-H23 lung and in the assay on CCRF-CEM leukemia was more than 100 µM each time. In addition, the TGI with UACC-62 melanoma and in the assay on SF-268 CNS was more than 100 µM each time.

As to `CC1c2ccccc2N=C2SC(=S)N3CCN=C3N21` (configuration not stated), the GI50 in the assay with U251 CNS, with NCI-H226 lung, with SR leukemia, in the assay on OVCAR-8 ovarian, in the assay with NCI-H23 lung and with CCRF-CEM leukemia was more than 100 µM each time. Moreover, the GI50 in the assay with UACC-62 melanoma and in the assay on SF-268 CNS was more than 100 µM each time. Further, the TGI with U251 CNS, in the assay with NCI-H226 lung, with SR leukemia, in the assay with OVCAR-8 ovarian, in the assay on NCI-H23 lung and in the assay with CCRF-CEM leukemia was more than 100 µM each time. Moreover, the TGI in the assay with UACC-62 melanoma and in the assay with SF-268 CNS was more than 100 µM in each case.

Consider `C=CCNC(=O)N(CCC)CCCC(NC(C)=O)C(=O)NCc1ccccc1` (configuration not stated), for which the TGI in the assay on U251 CNS, with NCI-H226 lung, with SK-MEL-2 melanoma, with OVCAR-8 ovarian, in the assay on NCI-H23 lung and with CCRF-CEM leukemia was more than 100 µM throughout. Moreover, the TGI with UACC-62 melanoma and in the assay on SF-268 CNS was more than 100 µM in each case.

As for `c1ccc2[nH]c(CNc3ccc(C4C[Se]N=N4)cc3)nc2c1` (configuration not stated), the TGI in the assay on U251 CNS was more than 100 µM; in the assay on SR leukemia, 36 µM; in the assay with SK-MEL-2 melanoma, more than 100 µM; in the assay with OVCAR-8 ovarian, more than 100 µM; with NCI-H23 lung, more than 100 µM; in the assay with CCRF-CEM leukemia, 82.5 µM. The TGI in the assay with UACC-62 melanoma is 99 µM; in the assay on SF-268 CNS, more than 100 µM.

On to `C=CC1=C(C)C2=NC1=CC1=NC(=CC3=C(C)C4=C(O)[C@H](C(=O)OC)C(=C5NC(=C2)[C@@H](C)[C@@H]5CCC(=O)O)C4=N3)C(CC)=C1C`, for which the TGI with U251 CNS is more than 41.2 µM; in the assay with NCI-H226 lung, more than 100 µM; in the assay on SR leukemia, 1.5 µM; in the assay on SK-MEL-2 melanoma, more than 22.2 µM; with OVCAR-8 ovarian, more than 100 µM; in the assay with NCI-H23 lung, 9.12 µM. The TGI in the assay with UACC-62 melanoma was 7.99 µM; in the assay with SF-268 CNS it was more than 100 µM.

Consider `COC(=O)c1ccc2c(c1)C(=O)c1c-2n(CCCN=[N+]=[N-])c(=O)c2cc([N+](=O)[O-])ccc12`, for which the GI50 with U251 CNS is 18 µM; in the assay on NCI-H226 lung, more than 100 µM; with SK-MEL-2 melanoma, 27 µM; in the assay with OVCAR-8 ovarian, more than 100 µM; in the assay with NCI-H23 lung, 60 µM; in the assay with CCRF-CEM leukemia, 42.2 µM. Further, the GI50 in the assay with UACC-62 melanoma was 37.2 µM; in the assay on SF-268 CNS, 17.3 µM. In addition, the TGI in the assay with U251 CNS is 48.8 µM; in the assay on NCI-H226 lung, more than 100 µM; in the assay with SK-MEL-2 melanoma, 82.5 µM; with OVCAR-8 ovarian it was more than 100 µM; in the assay with NCI-H23 lung, more than 100 µM; in the assay with CCRF-CEM leukemia it was more than 100 µM. The TGI with UACC-62 melanoma and in the assay with SF-268 CNS was more than 100 µM throughout.

With `[2H]c1nc(=Nc2cc(NC(=O)C=C)c(N(C)CCN(C)C)cc2OC)[nH]c(-c2cn(C([2H])([2H])[2H])c3ccccc23)c1[2H]`, the GI50 is 1.76 µM in the assay with U251 CNS; 2.45 µM in the assay on NCI-H226 lung; 1.23 µM with SR leukemia; 1.73 µM in the assay with SK-MEL-2 melanoma; 4 µM in the assay on OVCAR-8 ovarian; 3.14 µM in the assay on NCI-H23 lung. The GI50 with UACC-62 melanoma was 1.72 µM; with SF-268 CNS it was 1.98 µM. Further, the TGI in the assay with U251 CNS came to 3.6 µM; with NCI-H226 lung it was 26 µM; in the assay with SR leukemia it was 4.02 µM; in the assay on SK-MEL-2 melanoma it was 3.65 µM; with OVCAR-8 ovarian it was 24.5 µM; in the assay on NCI-H23 lung, 15.5 µM. Also, the TGI in the assay with UACC-62 melanoma worked out at 3.28 µM; in the assay on SF-268 CNS it was 13 µM.

For `c1cnn2ncc(-c3ccnc(Nc4ccc5c(c4)OCCO5)n3)c2c1`, the GI50 in the assay with U251 CNS is 0.0778 µM; in the assay on SR leukemia, 0.0466 µM; in the assay with SK-MEL-2 melanoma, 0.0483 µM; in the assay with OVCAR-8 ovarian, 0.0687 µM; in the assay on NCI-H23 lung, 0.0692 µM; with CCRF-CEM leukemia it was 0.0879 µM. For the same compound, the GI50 was 0.0475 µM in the assay with UACC-62 melanoma and 0.0687 µM in the assay with SF-268 CNS. Besides, the TGI in the assay with U251 CNS was 2.69 µM; with SK-MEL-2 melanoma, 0.121 µM; in the assay with OVCAR-8 ovarian, more than 25 µM; in the assay with NCI-H23 lung, 0.286 µM; with CCRF-CEM leukemia, more than 25 µM; in the assay with UACC-62 melanoma, 0.113 µM. The compound further registered a TGI in the assay on SF-268 CNS of 0.311 µM.

Consider `CC(=O)[CH-]C(=O)c1ccccc1.CC(=O)[CH-]C(=O)c1ccccc1.CC1(C)OCC(C2OC3OC(C)(C)OC3C2[O-])O1.CC[O-].[Ti+4]` (configuration not stated), for which the GI50 is 13.1 µM with U251 CNS; 15.2 µM in the assay on NCI-H226 lung; 12 µM in the assay on SK-MEL-2 melanoma; 11.5 µM in the assay on OVCAR-8 ovarian; 15.8 µM with NCI-H23 lung; 4.71 µM with CCRF-CEM leukemia. Besides, the values for the GI50 with UACC-62 melanoma and in the assay on SF-268 CNS were 14.2 µM and 13.1 µM, respectively. For the same compound, the TGI with U251 CNS was 28.3 µM; in the assay on NCI-H226 lung it was 30.1 µM; in the assay on SK-MEL-2 melanoma, 27.8 µM; in the assay with OVCAR-8 ovarian, 26.9 µM; in the assay with NCI-H23 lung, 30 µM; in the assay on CCRF-CEM leukemia it was more than 100 µM. Moreover, the results for the TGI in the assay on UACC-62 melanoma and with SF-268 CNS were 28.8 µM and 29 µM, respectively.

On to `O=C1/C(=C/c2cccc([N+](=O)[O-])c2)Sc2scc(-c3ccc([N+](=O)[O-])cc3)[n+]21`, for which the TGI in the assay with U251 CNS was more than 100 µM; in the assay on NCI-H226 lung it was more than 100 µM; in the assay with SK-MEL-2 melanoma it was 70 µM; with OVCAR-8 ovarian it was more than 100 µM; in the assay with NCI-H23 lung, 35.5 µM; in the assay with UACC-62 melanoma, 48.5 µM.

In the case of `c1ccc(-c2nc(N3CCCNCC3)c3nc(-c4ccccc4)oc3n2)cc1`, the GI50 in the assay with U251 CNS was 1.74 µM; in the assay with SK-MEL-2 melanoma, 1.83 µM; in the assay with OVCAR-8 ovarian, 2.13 µM; in the assay with NCI-H23 lung it was 1.71 µM; in the assay with UACC-62 melanoma, 1.81 µM; in the assay on SF-268 CNS it was 1.76 µM. Besides, the TGI in the assay with U251 CNS is 3.31 µM; with SK-MEL-2 melanoma it was 3.49 µM; in the assay on OVCAR-8 ovarian it was 4.93 µM; with NCI-H23 lung it was 3.23 µM; in the assay on UACC-62 melanoma it was 3.34 µM; in the assay on SF-268 CNS it was 3.62 µM.

Consider `O=C1/C(=C/c2ccc([N+](=O)[O-])cc2)COc2ccc(O)cc21`, for which the GI50 in the assay on U251 CNS is 1.99 µM; with NCI-H226 lung it was 15.3 µM; in the assay with SK-MEL-2 melanoma it was 73 µM; in the assay on OVCAR-8 ovarian, 5.88 µM; with NCI-H23 lung, 7.83 µM; in the assay on CCRF-CEM leukemia, 0.647 µM. The GI50 with UACC-62 melanoma is 9.02 µM; in the assay on SF-268 CNS, 15.3 µM. In addition, the TGI in the assay on U251 CNS is 4.13 µM; in the assay with NCI-H226 lung, 72.4 µM; with SK-MEL-2 melanoma, more than 100 µM; in the assay on OVCAR-8 ovarian it was more than 100 µM; with NCI-H23 lung, 36.3 µM; in the assay on CCRF-CEM leukemia, 3.29 µM. Besides, the TGI in the assay on UACC-62 melanoma is 34.5 µM; in the assay with SF-268 CNS, more than 100 µM.

Take `O=C1c2ccccc2-c2c1c1ccccc1c(=O)n2CCNCCn1c2c(c3ccccc3c1=O)C(=O)c1ccccc1-2`: the GI50 with U251 CNS, in the assay with NCI-H226 lung, in the assay with SK-MEL-2 melanoma, with OVCAR-8 ovarian, with NCI-H23 lung and in the assay on UACC-62 melanoma was more than 25 µM throughout. Further, the GI50 with SF-268 CNS is more than 25 µM. Moreover, the TGI in the assay on U251 CNS, in the assay on NCI-H226 lung, in the assay on SK-MEL-2 melanoma, in the assay on OVCAR-8 ovarian, with NCI-H23 lung and in the assay on UACC-62 melanoma was more than 25 µM throughout. For the same compound, in the assay on SF-268 CNS, the TGI is more than 25 µM.

In the case of `Cc1ccc(NC(=O)/C(Cc2nc3ccc([N+](=O)[O-])cc3[nH]c2=O)=N\NC(=O)C[n+]2ccccc2)c(C)c1`, the TGI in the assay on U251 CNS is more than 100 µM; with NCI-H226 lung, more than 100 µM; in the assay with SK-MEL-2 melanoma, more than 100 µM; with OVCAR-8 ovarian, 74 µM; in the assay on NCI-H23 lung, more than 100 µM; in the assay on CCRF-CEM leukemia, 61.1 µM. In addition, the TGI in the assay with UACC-62 melanoma and with SF-268 CNS was more than 100 µM throughout.
